Data taken from the supplement of paper PMC10307832.

Legend:
Experiment in all cases: relative viability (nuclei count vs DMSO), 5 days (fraction); higher = more cells survive
HCC-827 = test system: HCC-827
How it was run: (§1)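 Relative viability equals treated-well nuclei counts divided by vehicle-well nuclei counts. Counts came from 4× images of lung cancer cell lines grown in 1536-well plates for 5 days after pin-tool dosing on the day after seeding. Dosing used one drug alone or a fixed anchor-drug dose plus five library-drug doses (not always all listed) in √10 steps, and values are medians of duplicate plates.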

NCI-H3122 = test system: NCI-H3122
How it was run: as §1

NCI-H2170 = test system: NCI-H2170
How it was run: as §1

NCI-H1792 = test system: NCI-H1792
How it was run: as §1

EPLC-272H = test system: EPLC-272H
How it was run: as §1

UMC-11 = test system: UMC-11
How it was run: as §1

NCI-H727 = test system: NCI-H727
How it was run: as §1

NCI-H322M = test system: NCI-H322M
How it was run: as §1

LU99A = test system: LU99A
How it was run: as §1

NCI-H647 = test system: NCI-H647
How it was run: as §1

NCI-H838 = test system: NCI-H838
How it was run: as §1

NCI-H1355 = test system: NCI-H1355
How it was run: as §1

`O=C(O)CCCCC(CCSCc1ccccc1)SCc1ccccc1` (stereo not drawn) [CPI-613] + Nc1ncn([C@H]2C[C@H](O)[C@@H](CO)O2)c(=O)n1 [Decitabine] (partner 2 µM) showed a relative viability (HCC-827; first compound 50 µM) of 0.359, a relative viability (HCC-827; first compound 158.11 µM) of 0.301 and a relative viability (HCC-827; first compound 500 µM) of 0.29. For the same molecule, the relative viability (NCI-H3122; first compound 5 µM) was 0.344, the relative viability (NCI-H3122; first compound 15.81 µM) was 0.439 and the relative viability (NCI-H3122; first compound 50 µM) was 0.481. The relative viability (NCI-H3122; first compound 158.11 µM) was 0.376, the relative viability (NCI-H3122; first compound 500 µM) was 0.185 and the relative viability (NCI-H2170; first compound 5 µM) was 0.458. The relative viability (NCI-H2170; first compound 15.81 µM) was 0.484, the relative viability (NCI-H2170; first compound 50 µM) was 0.486 and the relative viability (NCI-H2170; first compound 158.11 µM) was 0.342. The relative viability (NCI-H2170; first compound 500 µM) was 0.199, the relative viability (NCI-H1792; first compound 5 µM) was 0.571 and the relative viability (NCI-H1792; first compound 15.81 µM) was 0.449. For the same molecule, the relative viability (NCI-H1792; first compound 50 µM) was 0.572, the relative viability (NCI-H1792; first compound 158.11 µM) was 0.253 and the relative viability (NCI-H1792; first compound 500 µM) was 0.0627. For the same molecule, the relative viability (EPLC-272H; first compound 5 µM) was 0.358, the relative viability (EPLC-272H; first compound 15.81 µM) was 0.386 and the relative viability (EPLC-272H; first compound 50 µM) was 0.429. For the same molecule, the relative viability (EPLC-272H; first compound 158.11 µM) was 0.343, the relative viability (EPLC-272H; first compound 500 µM) was 0.319 and the relative viability (UMC-11; first compound 5 µM) was 0.574. It also gave a relative viability (UMC-11; first compound 15.81 µM) of 0.573, a relative viability (UMC-11; first compound 50 µM) of 0.611 and a relative viability (UMC-11; first compound 158.11 µM) of 0.562. For the same molecule, the relative viability (UMC-11; first compound 500 µM) was 0.544, the relative viability (NCI-H727; first compound 5 µM) was 0.803 and the relative viability (NCI-H727; first compound 15.81 µM) was 0.786. For the same molecule, the relative viability (NCI-H727; first compound 50 µM) was 0.894, the relative viability (NCI-H727; first compound 158.11 µM) was 0.776 and the relative viability (NCI-H727; first compound 500 µM) was 0.828. For the same molecule, the relative viability (NCI-H322M; first compound 5 µM) was 0.65, the relative viability (NCI-H322M; first compound 15.81 µM) was 0.656 and the relative viability (NCI-H322M; first compound 50 µM) was 0.664. It also gave a relative viability (NCI-H322M; first compound 158.11 µM) of 0.767, a relative viability (NCI-H322M; first compound 500 µM) of 0.703 and a relative viability (LU99A; first compound 5 µM) of 0.886. It also gave a relative viability (LU99A; first compound 15.81 µM) of 0.79, a relative viability (LU99A; first compound 50 µM) of 0.815 and a relative viability (LU99A; first compound 158.11 µM) of 0.79. The relative viability (LU99A; first compound 500 µM) was 0.219, the relative viability (NCI-H647; first compound 5 µM) was 0.345 and the relative viability (NCI-H647; first compound 15.81 µM) was 0.462. The relative viability (NCI-H647; first compound 50 µM) was 0.352, the relative viability (NCI-H647; first compound 158.11 µM) was 0.0749 and the relative viability (NCI-H647; first compound 500 µM) was 0.0141. It also gave a relative viability (NCI-H838; first compound 5 µM) of 0.449, a relative viability (NCI-H838; first compound 15.81 µM) of 0.437 and a relative viability (NCI-H838; first compound 50 µM) of 0.386. It also gave a relative viability (NCI-H838; first compound 158.11 µM) of 0.253, a relative viability (NCI-H838; first compound 500 µM) of 0.104 and a relative viability (NCI-H1355; first compound 5 µM) of 0.34. For the same molecule, the relative viability (NCI-H1355; first compound 15.81 µM) was 0.337, the relative viability (NCI-H1355; first compound 50 µM) was 0.342 and the relative viability (NCI-H1355; first compound 158.11 µM) was 0.341. For the same molecule, the relative viability (NCI-H1355; first compound 500 µM) was 0.114.
